Assay results reported in patent US8618082B2, “Lupeol anti-tumor agent and uses thereof” (Wisconsin Alumni Research Foundation, priority 2004, dated 2013).
Marks after values point to notes of the source that are not given here.

How the values were obtained:
CD-1 mouse skin = assay: TPA-induced cutaneous edema, skin punch weight; format: in vivo; conditions: for protection against TPA-induced skin edema: dose not stated, p<0.01
Protocol: Studies from the inventors' laboratory and by other have shown that TPA application to mouse skin results in cutaneous edema (Katiyar et at, 1996; Liang et at, 2002). In the present study, the inventors evaluated the protective effects of topical application of Lupeol in TPA-mediated cutaneous edema in CD-1 mouse. The inventors tested four doses 0.25, 0.5, 1 and 2 mg of Lupeol per animal in the inventors' preliminary studies. […] The CD-1 mice were topically treated with Lupeol (1 and 2 mg/mouse) and 30 min later were topically treated with TPA (3.2 nmole/mouse). […] At least four determinations were made at different dorsal skin sites per mouse in each group. The data represents the mean±SE of eight mice (*p<0.01 vs TPA).
(§1) The animals were shaved on the dorsal side of the skin, divided into four groups and treated topically on the shaved area with either 0.4 ml vehicle (acetone), or TPA (3.2 nmol/0.4 ml acetone/animal, v/v), or Lupeol (1 or 2 mg/0.2 ml acetone/animal, w/v) followed 30 min later with TPA (3.2 nmol/0.2 ml acetone/animal). Animals were sacrificed at different times point i.e. 6, 12, 24 and 48 h post TPA treatment. The epidermis was separated from the whole skin and homogenized in 0.1 M Tris-HCl buffer (pH 7.2) using a Polytron tissue homogenizer (Brinkmann Instruments, Westbury, N.Y., USA) at 100,000×g supernatant, and microsomal fractions were prepared as described earlier (Katiyar and Mukhtar, 1997). The sample of 6 h treatment group was used to assess the ODC activity as this time point has previously been shown for optimal induction of the enzyme (Katiyar er al., 1996).
To assess the inhibitory effect of pre-application of Lupeol on TPA-induced edema, 1 cm-diameter punches of skin from vehicle-, Lupeol-, TPA- or Lupeol- and TPA-treated mice were removed, made free of fat pads, and weighed immediately. After drying for 24 h at 50° C., the skin punches were reweighed, and the loss of water content was determined. The difference in the amount of water gain between the control (vehicle treated) and TPA treated represented the extent of edema induced by TPA, whereas that between the control vehicle and Lupeol plus TPA represented the inhibitory effect of Lupeol. For the hyperplasia study, skin was removed, fixed in 10% formalin, and embedded in paraffin. Vertical sections (5 μm) were cut, mounted on a glass slide, and stained with hematoxylin and eosin.

[1] = system: catalytic (p110) and regulatory (p85) subunit of PI3K; assay: TPA-induced epidermal PI3K expression (western blot); format: in vivo, mouse
Protocol: FIG. 5. Inhibitory effect of Lupeol on TPA-induced activation of PI3K and phosphorylation of Akt in CD-1 mice: At different times after treatment, the animals were sacrificed, epidermal protein lysate was prepared, and PI3K and phosphorylated (Thr^308) Akt and total Akt protein expression were determined. The immunoblots shown here are representative of three independent experiments with similar results. The values above each lane indicate relative density of the band normalized to β-actin.
as §1
Epidermis from the whole skin was separated as described earlier (Katiyar et al., 1999) and was homogenized in ice-cold lysis buffer [50 mM Tris-HCl, 150 mM NaCl, 1 mM EGTA, 1 mM EDTA, 20 mM NaF, 100 mM Na3VO4, 0.5% NP-40, 1% Triton X-100, 1 mM PMSF (pH 7.4)] with freshly added protease inhibitor cocktail, Protease Inhibitor Cocktail Set III (Calbiochem, La Jolla, Calif., USA). The homogenate was then centrifuged at 14,000×g for 25 minutes at 4° C. and the supernatant (total cell lysate) was collected, aliquoted and stored at −80° C. For the preparation of nuclear lysate, 0.2 g of the epidermis was homogenized in 1 ml of ice-cold phosphate-buffered saline (pH 7.6) and centrifuged at 12,000×g for 5 min at 4° C. […] The protein content in the lysates was measured by DC BioRad assay (BioRad Laboratories, Hercules, Calif.) as per the manufacturer's protocol.
For western blot analysis, 40 μg of the protein was resolved over 8-12% polyacrylamide gels and transferred to a nitrocellulose membrane. […] This was followed by incubation with anti-mouse or anti-rabbit secondary antibody horse-radish peroxidase (Amersham Life Sciences, Inc., USA) for 1 h and then washed several times and detected by chemiluminescence ECL kit, (Amersham Life Sciences, Inc., USA) and autoradiography using XAR-5 film obtained from Eastman Kodak Co. (Rochester, N.Y., USA). […]

AsPC-1 cells = assay: Viability of AsPC-1 cells, MTT assay; format: cell-based; conditions: Lupeol for 24-72 hours
Protocol: FIG. 20 depicts effect of Lupeol on viability of AsPC-1 cells. The cells were treated with specified concentrations of Lupeol for 24, 48 and 72 h, and cell viability was determined by MTT assay.

mouse ear = conditions: Nikiema et al., 2001; cited from earlier work
[2] = Lupeol alone (2 mg), topical, no TPA, mean±SE of eight mice
[3] = TPA + Lupeol (1 mg), Lupeol topical 30 min before TPA
[4] = TPA + Lupeol (2 mg), Lupeol topical 30 min before TPA

C=C(C)[C@@H]1CC[C@]2(C)CC[C@]3(C)[C@H](CC[C@@H]4[C@@]5(C)CC[C@H](O)C(C)(C)[C@@H]5CC[C@]43C)[C@@H]12 [Lupeol, Lup-20(29)-en-3β-ol]
protection against TPA-induced skin edema (CD-1 mouse skin; 24 h post-treatment): 48% | protection against TPA-induced skin edema (CD-1 mouse skin; 48 h post-treatment): 43% | Skin punch weight 24 hrs (CD-1 mouse skin; [2]): 13.5 ± 1.5 mg/cm2 | Skin punch weight 48 hrs (CD-1 mouse skin; [2]): 15.5 ± 1.5 mg/cm2 | % protection 24 hrs (CD-1 mouse skin; TPA + Lupeol (1 mg)): 53% | % protection 48 hrs (CD-1 mouse skin; TPA + Lupeol (1 mg)): 52% | Skin punch weight 24 hrs (CD-1 mouse skin; [3]): 18.5 ± 1.0* mg/cm2 | Skin punch weight 48 hrs (CD-1 mouse skin; [3]): 20.0 ± 1.0* mg/cm2 | % protection 24 hrs (CD-1 mouse skin; TPA + Lupeol (2 mg)): 79% | % protection 48 hrs (CD-1 mouse skin; TPA + Lupeol (2 mg)): 85% | Skin punch weight 24 hrs (CD-1 mouse skin; [4]): 16.0 ± 1.5* mg/cm2 | Skin punch weight 48 hrs (CD-1 mouse skin; [4]): 16.5 ± 0.75* mg/cm2 | skin edema after Lupeol alone (CD-1 mouse skin; topical Lupeol alone, 24 and 48 h post treatment): did not result in an increase in skin edema | expression of p110 and p85 ([1]; 2 mg Lupeol prior to TPA): recovery of the expression of both p110 and p85 almost to their basal levels | TPA-induced increased expression of catalytic and regulatory subunits of PI3K ([1]; topical Lupeol 30 min prior to TPA): significant inhibition | cell death of ASPC-1 cells (AsPC-1 cells): highly significant dose dependent cell death | protection against croton oil induced edema in mouse ear (mouse ear): more efficacy than indomethacin
